Experimental data taken from US20150237877A1, “METHODS OF HANDLING PERSIMMONS” (AGROFRESH INC., priority 2012, published 2015).

Tests used:
Assay type in all cases: in vivo, Persimmon (Diasoyros kaki)
[1] = test system: persimmons, variety Rojo Brillante; test: Example 4: pulp firmness of persimmons, MCP before storage, CO2 astringency removal after storage; details: cold storage, then room temperature for 7 days, MCP 600 ppb where applied
Procedure: Persimmons are harvested in Valencia—Spain and in the packing house part of the fruits are packed in plastic boxes and the other part is packed in MAP bags. • Location: Spain • Variety: Rojo Brillante (astringent, need CO2 application, ready to eat after astringency removal process) • Storage at 0° C. for 72 days • MCP application before the storage • MAP Bag: PE/EVA OP and Nylon bag with dimensions of 27″ (68.6 cm) width by 28″ (71.1 cm) length made from Kenylon 6250 Polyamide Film available from FM • Packaging
The Test Protocol is as follows. • a. PE/EVA OP Bags: 3 kg (6.6 lb) of fruits per bag, 5 bags per box and 6 RPC boxes • b. PE/EVA 8P Bags: 1 kg (2.2 lb) of fruits per bag, 15 bags per box and 6 RPC boxes • c. Nylon 0.2 and 0.35: 10 kg (22.5 lb) of fruits per bag, 2 bag per box and 6 RPC boxes • d. No Bag: 20 kg of fruits per box and 6 RPC boxes
The MAP-packaged persimmons are packaged as follows: fruits are carefully placed into microperforated bags, and the bags are sealed by twisting the open side of the bag, folding down the twisted end, and placing a rubber band around the twisted and folded end of the bag.
The appropriate weight of persimmons is placed in each bag after harvest and shipment. […]
For the Pulp Firmness evaluation, the persimmons have the skin removed with a peeler and the pulp firmness is measured with a Manual Penetrometer with a probe of 8 mm.

persimmons = test: Example 2: pulp firmness of persimmons, 1-MCP and ethanol before storage; details: for Pulp Firmness, Day 0 / Pulp Firmness, Day 1 / Pulp Firmness, Day 4 / Pulp Firmness, Day 7 / Pulp Firmness, Day 10: 1000 ppb of MCP
Description: This Example uses a similar test to Example 1 but with the ethanol application before the storage, at the same time as 1-MCP application.
Persimmons are harvested in Mogi das Cruzes—SP—Brazil and packed in RPC (Recycle Plastic Container) and shipped to Piracicaba—SP. At the same day of harvest part of the persimmons are packed in MAP bags.
(§1) The Test Protocol is as follows. 4 MAP bags are packed. Each bag holds approximately 16 kg (36 lb) of persimmons. One such bag is packed in each RPC. Total weight of persimmons in MAP bags is approximately 64 kg. Approximately 64 kg of persimmons are placed into RPC identical to those used for the MAP bags.
(§2) The MAP-packaged persimmons are packaged as follows: 80 fruits, approximately 16 kg are carefully placed into microperforated bags, and the bags are sealed by twisting the open side of the bag, folding down the twisted end, and placing a rubber band around the twisted and folded end of the bag.
(§3) The appropriate weight of persimmons is placed in each bag after harvest and shipment. Bags are placed in RPC carrying devices. Persimmons are moved to a Cold Room at 12° C. next.
On the same day the persimmons are bagged, each treatment set is marked, placed in a hermetical chamber at the Cold Room. All chambers are of equal size and packed the same way. Treatment lasts for 12 hours. In the chambers for the “MCP” treatment groups, at the beginning of the treatment period, SmartTabs™ tablets are placed in the chamber. The amount of SmartTab™ tablets is chosen to achieve the indicated concentration of 1-methylcyclopropene in the atmosphere of the chamber. At the same time the persimmons are exposed to ethanol with the purpose of removing the astringency (3.5 mL/kg of fruit).
After the storage at Cold Room, the bags are removed and the RPCs are moved into racks at room temperature for storage and observation.
Evaluation firmness is as follows. Day “zero” is the day the persimmons are harvested and Day “one” is the day the persimmons are removed from the cold storage.
(§4) For the Pulp Firmness evaluation, the persimmons have the skin removed with a peeler and the pulp firmness is measured with a Firmness Texture Analyzer (FTA) with a probe of 8 mm.

[2] = test system: persimmons, variety Giombo; test: Example 1: pulp firmness of persimmons, MCP before storage, ethanol after storage; details: for Pulp Firmness, Day 0 / Pulp Firmness, Day 1 / Pulp Firmness, Day 4: 1000 ppb of MCP
Procedure: Persimmons are harvested in Mogi das Cruzes—SP—Brazil and packed in RPC (Recycle Plastic Container) and shipped to Piracicaba—SP. At the same day of harvest part of the persimmons are packed in MAP bags. • Location: Brazil • Variety: Giombo (astringent and need to be treated with ethanol to be ready to eat) • Storage at 12° C. for 15 days • MAP Bag: a Nylon bag with dimensions of 27″ (68.6 cm) width by 28″ (71.1 cm) length made from Kenylon 6250 Polyamide Film available from FM Packaging. • MCP application before the storage • Ethanol Application after the storage
For the MAP bag used, the base film has 25 microns thickness without laser holes. The oxygen (O2) permeation of the MAP bag used is about 28 cc/m^2-day and the CO2 permeation is about 227 cc/m^2-day. The bags are laser drilled in the length direction with 105 micron holes at two locations 9″ (22.9 cm) from each side of the bag. The hole spacing is 9.06 mm. The total number of laser holes in the 20″ (8″ for tie off) length direction of the bag are about 228 holes. At an average hole diameter of 105 micron (pi×r^2=8630 micron^2), the 228 holes can provide an open area of ˜2.0 mm^2. The OTR of the bag is calculated to be 32,250 cm^3/day.
as §1, §2, §3
(§5) On the same day the persimmons are bagged, each treatment set is marked, placed in a hermetical chamber at the Cold Room. All chambers are of equal size and packed the same way. Treatment lasts for 12 hours. In the chambers for the “MCP” treatment groups, at the beginning of the treatment period, SmartTabs™ tablets are placed in the chamber. The amount of SmartTab™ tablets is chosen to achieve the indicated concentration of 1-methylcyclopropene in the atmosphere of the chamber.
Persimmons used in this trial are an astringent variety. To remove the astringency the fruits were treated with ethanol after the 15 days at cold storage.
After removed the bags for the MAP bag groups, all the fruits are placed in a hermetical chamber and treated with ethanol (3.5 mL/kg of fruit) for 12 hours.
After the treatment in the chambers, the RPCs are moved into racks at room temperature for storage and observation.
Firmness evaluation is as follows. Day “zero” was the day the persimmons are harvested and Day “one” is the day the persimmons are removed from the ethanol treatment.
as §4

persimmons, variety Fuyu = test: Example 3: pulp firmness of persimmons, MCP before storage; details: for Pulp Firmness, Days 0 / Pulp Firmness, Days 3 / Pulp Firmness, Days 6: 500 ppb of MCP; for Pulp Firmness, Days 0: Day 0 after 60 days cold storage; for Pulp Firmness, Days 3: Day 3 after 60 days cold storage; for Pulp Firmness, Days 6: Day 6 after 60 days cold storage
Procedure: Persimmons are harvested in Madera—Calif. —USA and packed in cardboard boxes and shipped to Davis—Calif. At the same day of harvest part of the persimmons are packed in MAP bags. • Location: USA • Variety: Fuyu (non astringent, doesn't need ethanol application, ready to eat after harvest) • Storage at 0° C. for 60 days • MCP application before the storage • MAP Bag: Amcor bag type 30EF90.
The Amcor bag type 30EF90 has dimensions of 39.5″ (100.3 cm) wide and 35″ (88.9 cm) long. The bag is not perforated and has 25 microns thickness with an oxygen (O2) permeability of 6750 cc/[m^2 day]. The OTR of the bag is calculated to be 7560 cm^3/day.
as §1, with “10” for “16”, “(22.5” for “(36”, “RPC (Recycle Plastic Container).” for “RPC.”, “40” for “64”
The MAP-packaged persimmons are packaged as follows: 80 fruits, approximately 10 kg were carefully placed into microperforated bags, and the bags are sealed by twisting the open side of the bag, folding down the twisted end, and placing a rubber band around the twisted and folded end of the bag.
The appropriate weight of persimmons is placed in each bag after harvest and shipment. Bags are placed in RPC carrying devices. Persimmons then are moved to a Cold Room at 0° C.
as §5
After 60 days of storage at Cold Room, the bags are removed and the RPCs are moved into racks at room temperature for storage and observation.
Evaluation firmness is as follows. Day “zero” is the day the persimmons are removed from the cold storage.
as §4

[3] = Day 0 = day of harvest, MCP 1000 ppb where applied

For `CC1=CC1` [SmartFresh, 1-methylcyclopropene], the Firmness [1] was 3.33 kg, the “Δ, difference between the firmness for the treatment and the firmness for the No Bag treatment” value [1] was 1.33 kg and the “Pulp Firmness, Day 0” value (persimmons; Bag MAP) was 20.99 lbf. The “Pulp Firmness, Day 1” value (persimmons; Bag MAP, Day 1) was 18.16 lbf, the “Pulp Firmness, Day 4” value (persimmons; Bag MAP, Day 4) was 16.94 lbf and the “Pulp Firmness, Day 7” value (persimmons; Bag MAP) was 15.84 lbf. For the same compound, the “Pulp Firmness, Day 10” value (persimmons; Bag MAP) was 14.23 lbf, the “Firmness results, Day 0” value (persimmons; [3]) was 20.99 lbf and the “Firmness difference (Δ) as compared to the control group, Day 1” value (persimmons; Day 1) was 0.15 lbf. For the same compound, the “Firmness results, Day 1” value (persimmons; Day 1 = day removed from the cold storage (12° C.), MCP 1000 ppb where applied) was 16.65 lbf, the “Firmness difference (Δ) as compared to the control group, Day 4” value (persimmons; Day 4) was −0.39 lbf and the “Firmness results, Day 4” value (persimmons; Day 4, room temperature after cold storage, MCP 1000 ppb where applied) was 14.74 lbf. For the same compound, the “Pulp Firmness, Day 0” value (persimmons; No Bag) was 20.99 lbf, the “Pulp Firmness, Day 1” value (persimmons; No Bag, Day 1) was 17.87 lbf and the “Pulp Firmness, Day 4” value (persimmons; No Bag, Day 4) was 15.09 lbf. The “Pulp Firmness, Day 7” value (persimmons; No Bag) was 13.70 lbf, the “Pulp Firmness, Day 10” value (persimmons; No Bag) was 12.62 lbf and the “firmness provided to the persimmons” value (persimmons; after 7 day at room temperature) was 1.55 lbf. For the same compound, the “Pulp Firmness, Day 0” value ([2]; Bag MAP) was 20.99 lbf, the “Pulp Firmness, Day 1” value ([2]; Bag MAP) was 18.62 lbf and the “Pulp Firmness, Day 4” value ([2]; Bag MAP, Day 4) was 18.18 lbf. For the same compound, the “Firmness results, Day 0” value [2, 3] was 20.99 lbf, the “Firmness results, Day 1” value ([2]; Day 1 = day removed from ethanol treatment, after 15 days at 12° C., MCP 1000 ppb where applied) was 17.87 lbf and the “Firmness difference (Δ) as compared to the control group, Day 4” value ([2]; Day 4) was 0.89 lbf. For the same compound, the “Firmness results, Day 4” value ([2]; Day 4, room temperature after 15 days at 12° C. and ethanol, MCP 1000 ppb where applied) was 15.09 lbf, the “Firmness difference (Δ) as compared to the control group, Day 7” value ([2]; Day 7) was 1.55 lbf and the “Firmness results, Day 7” value ([2]; Day 7, room temperature after 15 days at 12° C. and ethanol, MCP 1000 ppb where applied) was 13.70 lbf. The “Firmness results, Day 10” value ([2]; Day 10, room temperature after 15 days at 12° C. and ethanol, MCP 1000 ppb where applied) was 12.62 lbf, the “Pulp Firmness, Day 0” value ([2]; No Bag) was 20.99 lbf and the “Pulp Firmness, Day 1” value ([2]; No Bag) was 16.65 lbf. For the same compound, the “Pulp Firmness, Day 4” value ([2]; No Bag, Day 4) was 14.74 lbf, the “firmness provided to the persimmons” value ([2]; after 1 day at room temperature) was 0.15 lbf and the “Firmness results, d60 + 3 day” value (persimmons, variety Fuyu; 60 days at 0° C. + 3 days at room temperature, MCP 500 ppb where applied) was 9.1 lbf. For the same compound, the “Firmness results, d60 + 6 day” value (persimmons, variety Fuyu; 60 days at 0° C. + 6 days at room temperature, MCP 500 ppb where applied) was 6.7 lbf, the “Firmness results, d60 + 0 day” value (persimmons, variety Fuyu; 60 days at 0° C., day removed from the cold storage, MCP 500 ppb where applied) was 7.9 lbf and the “Pulp Firmness, Days 0” value (persimmons, variety Fuyu; Bag MAP (Amcor)) was 11.1 lbf. The “Pulp Firmness, Days 3” value (persimmons, variety Fuyu; Bag MAP (Amcor)) was 10.0 lbf, the “Pulp Firmness, Days 6” value (persimmons, variety Fuyu; Bag MAP (Amcor)) was 9.9 lbf and the “Pulp Firmness, Days 0” value (persimmons, variety Fuyu; No Bag) was 7.9 lbf. The “Pulp Firmness, Days 3” value (persimmons, variety Fuyu; No Bag) was 9.1 lbf, the “Pulp Firmness, Days 6” value (persimmons, variety Fuyu; No Bag) was 6.7 lbf and the “Firmness difference (Δ) as compared to the control group, d60 + 6 day” value (persimmons, variety Fuyu; d60 + 6 day) was 6.2 lbf. For the same compound, the “firmness provided to the persimmons / maintained higher than the untreated fruits” value (persimmons, variety Fuyu; in vivo) was 6.2 lbf.
